Measured values from patent publication US11584713B2, “25-hydroxycholecalciferol monohydrate crystal, preparation method therefor and microemulsion using same” (SHANDONG HAINENG BIOENGINEERING CO., LTD., priority 2018, dated 2023).

Legend:
[1] = Stability test, left open at 25° C., content of 25-hydroxycholecalciferol by HPLC; assay type: physicochemical; details: for Content of 25-hydroxycholecalciferol: left open at 25° C.
Protocol: 6. Stability Test the 25-hydroxycholecalciferol monohydrate crystal prepared in the present embodiment was left open at 25° C., and a content of 25-hydroxycholecalciferol contained therein was tested after one month, three months and six months respectively, and meanwhile, 25-hydroxycholecalciferol was used as a control example, and the results were shown in Table 2. The content of 25-hydroxycholecalciferol was measured by the following method: taking a sample to prepare a solution of about 10 μg/mL, injecting 20 μL for a HPLC analysis, and calculating the content thereof according to an external standard method. Test conditions of the HPLC were as follows: chromatographic column: C18 column; internal diameter: 4.6 mm; length: 150 mm, particle size: 5 μm; detection wavelength: 265 nm; temperature of column: 30° C.; flow rate: 1.5 mL/min (which may be adjusted according to desired retention time and a degree of separation of 25-hydroxycholecalciferol and a 25-hydroxycholecalciferol precursor); injection volume: 20 uL; and recording time: 2 times the retention time of main peak.

[2] = cited from earlier work

Row | Compound | Loss of 25-hydroxycholecalciferol (in words) ([1]; after six months of being left open at 25° C.) | Content of 25-hydroxycholecalciferol ([1]; 0 day) [%] | Content of 25-hydroxycholecalciferol ([1]; one month) [%] | Content of 25-hydroxycholecalciferol ([1]; six months) [%] | Content of 25-hydroxycholecalciferol ([1]; three months) [%] | solubility in diethyl ether ([2]; diethyl ether) | solubility in dimethyl sulfoxide ([2]; dimethyl sulfoxide) | solubility in ethanol ([2]; ethanol) | solubility in methanol ([2]; methanol) | solubility in water ([2]; water)
1 | C=C1CC[C@H](O)C/C1=C/C=C1\CCC[C@]2(C)[C@@H]([C@H](C)CCCC(C)(C)O)CC[C@@H]12 [25-hydroxycholecalciferol monohydrate] | almost no loss | 99.60 | 99.05 | 96.59 | 98.46 | – | – | – | – | –
2 | C=C1CC[C@H](O)C/C1=C/C=C1\CCC[C@]2(C)[C@@H]([C@H](C)CCCC(C)(C)O)CC[C@@H]12 [25-hydroxycholecalciferol] | – | 99.23 | 65.03 | 29.61 | 47.65 | slightly soluble | easily soluble | easily soluble | easily soluble | almost insoluble
